“And” between values parts separate entries of the source, which are not always exact repeats. Equal values may be shown once. Read-outs that look alike come from different tables or passages of the source.
Biological target: T1, wt-ALHH DrIleRS2 (Deinococcus radiodurans, UniProt Q9RUP8)
T1 construct: hexa-histidine tag (pET28b(+)) (N); made in house; host or cells: E. coli BL21(DE3)
Experiment: ATP-PPi exchange assay, mupirocin inhibition of amino acid activation
Format: biochemical
Description: L-Ile and ATP concentrations ranged from 1/10 KM to 10 KM values. When measuring the KI towards one of the substrates, the other was held in saturation (concentrations at least 10 KM). The aliquots of the reaction mixture (1–2.5 μl) were quenched in 2 volumes of 500 mM NaOAc pH = 4.5, 0.1% SDS, and formed ^32P-ATP was separated from the remaining ^32P-PPi by thin-layer chromatography on Polygram CEL 300 PEI UV254 TLC plates (Macherey-Nagel, cat: 801063) using 750 mM KH2PO4 pH=3.5, 4 M urea buffer. Visualization and quantification of the signals was performed using a Typhoon Phosphoimager 5 (General Electric) and accompanying ImageQuant™ TL software (SV: 10.2). The kinetic constants were determined using a global fit option of the competitive inhibition model of GraphPad Prism 6 software (SV: 6.01). All experiments were performed in triplicates. The kcat was determined by dividing the maximal velocity, VM, with the used enzyme concentration. […]
variable substrate (ATP or Ile) was varied in the range of 0.1 KM to 10 KM. The other substrate (Ile or ATP) was kept in excess at 5 to 10 KM. Data were globally fitted to the competitive inhibition model using GraphPad prism 6.01 for Windows software. The values represent the average value ± SD of three independent experiments. Source data are provided as a Source Data file.

T1 sequence (Q9RUP8 whole entry): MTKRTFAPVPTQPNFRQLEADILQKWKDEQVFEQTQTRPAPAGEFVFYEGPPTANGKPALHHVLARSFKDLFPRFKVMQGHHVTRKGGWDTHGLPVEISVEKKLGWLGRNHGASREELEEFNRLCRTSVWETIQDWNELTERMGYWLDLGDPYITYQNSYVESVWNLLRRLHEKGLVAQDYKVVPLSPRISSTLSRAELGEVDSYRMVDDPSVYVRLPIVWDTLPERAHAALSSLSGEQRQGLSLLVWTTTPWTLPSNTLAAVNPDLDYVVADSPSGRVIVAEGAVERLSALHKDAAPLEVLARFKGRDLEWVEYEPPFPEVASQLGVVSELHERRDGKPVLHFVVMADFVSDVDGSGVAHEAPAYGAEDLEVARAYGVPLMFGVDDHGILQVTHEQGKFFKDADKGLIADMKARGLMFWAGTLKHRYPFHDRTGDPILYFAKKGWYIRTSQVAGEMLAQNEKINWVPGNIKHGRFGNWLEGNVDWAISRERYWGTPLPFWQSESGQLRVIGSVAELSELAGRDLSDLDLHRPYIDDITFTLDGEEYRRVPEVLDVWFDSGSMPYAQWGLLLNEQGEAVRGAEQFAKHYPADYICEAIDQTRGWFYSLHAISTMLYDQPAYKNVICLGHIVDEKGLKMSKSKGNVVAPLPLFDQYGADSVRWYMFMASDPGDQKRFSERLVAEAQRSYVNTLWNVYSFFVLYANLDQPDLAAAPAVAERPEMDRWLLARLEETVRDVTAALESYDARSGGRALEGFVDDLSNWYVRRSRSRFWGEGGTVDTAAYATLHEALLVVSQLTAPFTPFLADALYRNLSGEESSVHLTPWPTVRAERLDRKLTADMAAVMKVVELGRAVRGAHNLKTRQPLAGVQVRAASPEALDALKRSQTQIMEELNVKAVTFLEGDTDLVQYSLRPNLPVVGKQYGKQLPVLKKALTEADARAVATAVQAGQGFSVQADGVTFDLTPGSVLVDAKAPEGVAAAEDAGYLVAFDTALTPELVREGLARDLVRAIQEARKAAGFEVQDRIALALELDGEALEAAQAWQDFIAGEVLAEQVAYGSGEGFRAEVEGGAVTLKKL

`C/C(=C\C(=O)OCCCCCCCCC(=O)O)C[C@@H]1OC[C@H](C[C@@H]2O[C@H]2[C@@H](C)[C@H](C)O)[C@@H](O)[C@H]1O` [mupirocin] was tested, and the Ki (amino acid activation assay, ATP as variable substrate, average ± SD of three independent experiments, read-out: KI (MUP)ATP) was 7.7 ± 0.4 mM, the Ki (amino acid activation step, ATP/PPi exchange assay, Ile varied, ATP saturating, average ± SD of three independent experiments, read-out: KI (MUP)Ile) was 6.6 ± 0.4 mM and the mode of inhibition (amino acid activation step, with respect to both Ile and ATP) was “classical competitive inhibition”. For the same compound, the initial velocity vo (c(mupirocin) 2.0 mM, c(Ile) 10.0 μM) was 0.0067 mM/min and 0.00769 mM/min and 0.00782 mM/min, the initial velocity vo (c(mupirocin) 2.0 mM, c(Ile) 20.0 μM) was 0.01324 mM/min and 0.01288 mM/min and 0.01298 mM/min and the initial velocity vo (c(mupirocin) 2.0 mM, c(Ile) 40.0 μM) was 0.02028 mM/min and 0.02243 mM/min and 0.02046 mM/min. The initial velocity vo (c(mupirocin) 5.0 mM, c(ATP) 1.0 mM) was 0.03528 mM/min and 0.03566 mM/min and 0.03641 mM/min, the initial velocity vo (c(mupirocin) 5.0 mM, c(ATP) 2.5 mM) was 0.04751 mM/min and 0.04951 mM/min and 0.05105 mM/min and the initial velocity vo (c(mupirocin) 5.0 mM, c(ATP) 5.0 mM) was 0.05659 mM/min and 0.05544 mM/min and 0.05848 mM/min. For the same compound, the initial velocity vo (c(mupirocin) 5.0 mM, c(ATP) 10.0 mM) was 0.05987 mM/min and 0.05899 mM/min and 0.06477 mM/min, the initial velocity vo (c(mupirocin) 5.0 mM, c(Ile) 10.0 μM) was 0.00848 mM/min and 0.00805 mM/min and 0.00714 mM/min and the initial velocity vo (c(mupirocin) 5.0 mM, c(Ile) 20.0 μM) was 0.01178 mM/min and 0.01222 mM/min and 0.01149 mM/min. For the same compound, the initial velocity vo (c(mupirocin) 5.0 mM, c(Ile) 40.0 μM) was 0.01921 mM/min and 0.02111 mM/min and 0.01863 mM/min, the initial velocity vo (c(mupirocin) 10.0 mM, c(ATP) 1.0 mM) was 0.02957 mM/min and 0.02811 mM/min and 0.02952 mM/min and the initial velocity vo (c(mupirocin) 10.0 mM, c(ATP) 2.5 mM) was 0.04461 mM/min and 0.04583 mM/min and 0.04572 mM/min. For the same compound, the initial velocity vo (c(mupirocin) 10.0 mM, c(ATP) 5.0 mM) was 0.05427 mM/min and 0.05634 mM/min and 0.05619 mM/min, the initial velocity vo (c(mupirocin) 10.0 mM, c(ATP) 10.0 mM) was 0.06096 mM/min and 0.06226 mM/min and 0.06179 mM/min and the initial velocity vo (c(mupirocin) 10.0 mM, c(Ile) 10.0 μM) was 0.00446 mM/min and 0.00532 mM/min and 0.0043 mM/min. For the same compound, the initial velocity vo (c(mupirocin) 10.0 mM, c(Ile) 20.0 μM) was 0.0078 mM/min and 0.01029 mM/min and 0.0074 mM/min, the initial velocity vo (c(mupirocin) 10.0 mM, c(Ile) 40.0 μM) was 0.01449 mM/min and 0.016 mM/min and 0.01446 mM/min and the initial velocity vo (c(mupirocin) 10.0 mM, c(Ile) 80.0 μM) was 0.02234 mM/min and 0.02409 mM/min and 0.02227 mM/min. The initial velocity vo (c(mupirocin) 15.0 mM, c(ATP) 1.0 mM) was 0.02381 mM/min and 0.02402 mM/min and 0.0242 mM/min, the initial velocity vo (c(mupirocin) 15.0 mM, c(ATP) 2.5 mM) was 0.03988 mM/min and 0.03998 mM/min and 0.04105 mM/min and the initial velocity vo (c(mupirocin) 15.0 mM, c(ATP) 5.0 mM) was 0.05025 mM/min and 0.05034 mM/min and 0.05209 mM/min. For the same compound, the initial velocity vo (c(mupirocin) 15.0 mM, c(ATP) 10.0 mM) was 0.0561 mM/min and 0.05663 mM/min and 0.05737 mM/min, the initial velocity vo (c(mupirocin) 20.0 mM, c(ATP) 1.0 mM) was 0.02027 mM/min and 0.02047 mM/min and 0.01966 mM/min and the initial velocity vo (c(mupirocin) 20.0 mM, c(ATP) 2.5 mM) was 0.03606 mM/min and 0.03686 mM/min and 0.03693 mM/min. For the same compound, the initial velocity vo (c(mupirocin) 20.0 mM, c(ATP) 5.0 mM) was 0.04674 mM/min and 0.0476 mM/min and 0.04884 mM/min, the initial velocity vo (c(mupirocin) 20.0 mM, c(ATP) 10.0 mM) was 0.05461 mM/min and 0.05589 mM/min and 0.05542 mM/min and the initial velocity vo (c(mupirocin) 25 mM, c(ATP) 1.0 mM) was 0.01716 mM/min and 0.01763 mM/min and 0.01741 mM/min. For the same compound, the initial velocity vo (c(mupirocin) 25 mM, c(ATP) 2.5 mM) was 0.03106 mM/min and 0.033 mM/min and 0.02877 mM/min, the initial velocity vo (c(mupirocin) 25 mM, c(ATP) 5.0 mM) was 0.0424 mM/min and 0.04408 mM/min and 0.04201 mM/min and the initial velocity vo (c(mupirocin) 25 mM, c(ATP) 10.0 mM) was 0.05204 mM/min and 0.0507 mM/min and 0.05392 mM/min. For the same compound, the initial velocity vo (c(mupirocin) 25.0 mM, c(Ile) 10.0 μM) was 0.003 mM/min and 0.0032 mM/min and 0.00312 mM/min, the initial velocity vo (c(mupirocin) 25.0 mM, c(Ile) 20.0 μM) was 0.0036 mM/min and 0.0044 mM/min and 0.00399 mM/min and the initial velocity vo (c(mupirocin) 25.0 mM, c(Ile) 40.0 μM) was 0.0074 mM/min and 0.0071 mM/min and 0.00814 mM/min. For the same compound, the initial velocity vo (c(mupirocin) 25.0 mM, c(Ile) 80.0 μM) was 0.0137 mM/min and the Ki (mupirocin inhibition towards Ile, GraphPad Prism output, Repl1-Repl3, read-out: KI, single replicates) was 7.22 mM and 6.75 mM and 5.95 mM.
